According to ChEMBL document CHEMBL5291721, “A preclinical secondary pharmacology resource illuminates target-adverse drug reaction associations of marketed drugs” (Nat Commun, 2023):

Key:
[1] = target: T1, Alpha-2A adrenergic receptor (Homo sapiens, UniProt P08913); assay type: functional, cell-based
T1 sequence (P08913 whole entry): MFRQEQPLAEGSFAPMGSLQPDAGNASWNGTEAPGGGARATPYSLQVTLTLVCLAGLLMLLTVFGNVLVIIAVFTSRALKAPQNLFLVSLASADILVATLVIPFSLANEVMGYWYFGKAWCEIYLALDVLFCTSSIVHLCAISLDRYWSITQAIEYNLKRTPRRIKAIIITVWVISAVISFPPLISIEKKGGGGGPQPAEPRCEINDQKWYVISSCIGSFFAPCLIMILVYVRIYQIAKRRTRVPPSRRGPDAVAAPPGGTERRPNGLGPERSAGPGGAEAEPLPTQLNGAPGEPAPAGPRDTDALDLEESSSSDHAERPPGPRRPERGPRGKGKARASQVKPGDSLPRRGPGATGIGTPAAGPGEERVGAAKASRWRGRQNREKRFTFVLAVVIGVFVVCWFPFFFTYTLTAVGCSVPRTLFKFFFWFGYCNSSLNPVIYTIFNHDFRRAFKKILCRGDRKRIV

[2] = target: Beta-1 adrenergic receptor (Homo sapiens, UniProt P08588); assay type: functional
[3] = target: Vasopressin V1a receptor (Homo sapiens, UniProt P37288)
[4] = target: T2, Muscarinic acetylcholine receptor M1 (Homo sapiens, UniProt P11229); assay type: functional
T2 sequence (P11229 whole entry): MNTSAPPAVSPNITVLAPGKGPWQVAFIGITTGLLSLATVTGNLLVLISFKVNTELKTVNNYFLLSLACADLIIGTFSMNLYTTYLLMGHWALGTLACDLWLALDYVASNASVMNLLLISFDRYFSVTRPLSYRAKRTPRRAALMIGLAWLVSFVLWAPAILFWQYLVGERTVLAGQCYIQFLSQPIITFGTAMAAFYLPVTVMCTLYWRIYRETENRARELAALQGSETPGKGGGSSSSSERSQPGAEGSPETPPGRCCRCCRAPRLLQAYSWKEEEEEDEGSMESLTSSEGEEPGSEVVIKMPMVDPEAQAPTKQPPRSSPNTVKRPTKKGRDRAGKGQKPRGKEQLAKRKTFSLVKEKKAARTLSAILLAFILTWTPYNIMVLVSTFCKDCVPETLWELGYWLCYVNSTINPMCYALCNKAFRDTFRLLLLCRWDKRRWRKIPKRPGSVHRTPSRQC

[5] = target: T3, Estrogen receptor (Homo sapiens, UniProt P03372)
T3 sequence (P03372 whole entry): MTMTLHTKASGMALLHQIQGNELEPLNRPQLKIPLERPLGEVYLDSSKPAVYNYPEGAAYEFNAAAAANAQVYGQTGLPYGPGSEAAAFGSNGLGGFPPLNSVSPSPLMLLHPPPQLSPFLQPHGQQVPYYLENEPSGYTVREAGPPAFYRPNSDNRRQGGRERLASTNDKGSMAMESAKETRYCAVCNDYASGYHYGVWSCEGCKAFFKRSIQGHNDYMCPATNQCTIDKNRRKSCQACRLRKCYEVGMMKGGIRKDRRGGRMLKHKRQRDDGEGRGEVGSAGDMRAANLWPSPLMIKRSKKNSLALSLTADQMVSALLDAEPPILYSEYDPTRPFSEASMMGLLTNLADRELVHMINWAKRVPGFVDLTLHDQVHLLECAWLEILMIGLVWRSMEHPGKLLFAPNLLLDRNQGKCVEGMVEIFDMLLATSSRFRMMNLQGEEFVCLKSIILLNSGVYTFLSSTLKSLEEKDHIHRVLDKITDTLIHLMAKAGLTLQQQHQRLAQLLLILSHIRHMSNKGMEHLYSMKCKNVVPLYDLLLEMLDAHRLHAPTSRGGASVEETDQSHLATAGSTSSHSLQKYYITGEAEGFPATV

[6] = target: T4, 5-hydroxytryptamine receptor 2C (Homo sapiens, UniProt P28335)
T4 sequence (P28335 whole entry): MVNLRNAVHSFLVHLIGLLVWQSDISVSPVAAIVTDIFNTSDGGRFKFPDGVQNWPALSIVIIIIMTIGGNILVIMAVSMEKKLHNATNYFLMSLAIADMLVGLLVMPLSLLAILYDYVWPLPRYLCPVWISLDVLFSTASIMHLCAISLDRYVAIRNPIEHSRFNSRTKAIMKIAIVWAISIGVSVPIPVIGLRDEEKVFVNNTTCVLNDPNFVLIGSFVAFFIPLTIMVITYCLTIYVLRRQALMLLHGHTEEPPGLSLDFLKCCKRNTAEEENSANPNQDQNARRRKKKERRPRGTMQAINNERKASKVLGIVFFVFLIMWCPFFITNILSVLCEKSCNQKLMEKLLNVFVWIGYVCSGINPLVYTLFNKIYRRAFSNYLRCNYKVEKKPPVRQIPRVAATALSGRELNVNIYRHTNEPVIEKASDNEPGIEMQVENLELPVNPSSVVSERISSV

[7] = target: Voltage-gated inwardly rectifying potassium channel KCNH2 (Homo sapiens, UniProt Q12809); assay type: functional
[8] = target: Delta-type opioid receptor (Homo sapiens, UniProt P41143)
[9] = target: D(3) dopamine receptor (Homo sapiens, UniProt P35462)
[10] = target: T5, Alpha-1A adrenergic receptor (Homo sapiens, UniProt P35348); assay type: functional, cell-based
T5 sequence (P35348 whole entry): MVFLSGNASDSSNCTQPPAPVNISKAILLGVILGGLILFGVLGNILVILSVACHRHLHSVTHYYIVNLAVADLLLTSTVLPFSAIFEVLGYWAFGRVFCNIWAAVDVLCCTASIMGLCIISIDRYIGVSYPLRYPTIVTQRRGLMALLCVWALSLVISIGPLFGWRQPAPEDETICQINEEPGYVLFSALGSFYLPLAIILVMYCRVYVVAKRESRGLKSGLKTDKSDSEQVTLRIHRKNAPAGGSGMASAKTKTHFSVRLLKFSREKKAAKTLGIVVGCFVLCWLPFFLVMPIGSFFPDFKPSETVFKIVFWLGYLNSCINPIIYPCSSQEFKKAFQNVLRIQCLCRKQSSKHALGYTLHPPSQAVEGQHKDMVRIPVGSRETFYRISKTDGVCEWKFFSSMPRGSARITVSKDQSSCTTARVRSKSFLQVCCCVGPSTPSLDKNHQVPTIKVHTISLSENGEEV
Also: assay procedure not described here.

Voltage-gated inwardly rectifying potassium channel KCNH2, sequence (Q12809 whole entry): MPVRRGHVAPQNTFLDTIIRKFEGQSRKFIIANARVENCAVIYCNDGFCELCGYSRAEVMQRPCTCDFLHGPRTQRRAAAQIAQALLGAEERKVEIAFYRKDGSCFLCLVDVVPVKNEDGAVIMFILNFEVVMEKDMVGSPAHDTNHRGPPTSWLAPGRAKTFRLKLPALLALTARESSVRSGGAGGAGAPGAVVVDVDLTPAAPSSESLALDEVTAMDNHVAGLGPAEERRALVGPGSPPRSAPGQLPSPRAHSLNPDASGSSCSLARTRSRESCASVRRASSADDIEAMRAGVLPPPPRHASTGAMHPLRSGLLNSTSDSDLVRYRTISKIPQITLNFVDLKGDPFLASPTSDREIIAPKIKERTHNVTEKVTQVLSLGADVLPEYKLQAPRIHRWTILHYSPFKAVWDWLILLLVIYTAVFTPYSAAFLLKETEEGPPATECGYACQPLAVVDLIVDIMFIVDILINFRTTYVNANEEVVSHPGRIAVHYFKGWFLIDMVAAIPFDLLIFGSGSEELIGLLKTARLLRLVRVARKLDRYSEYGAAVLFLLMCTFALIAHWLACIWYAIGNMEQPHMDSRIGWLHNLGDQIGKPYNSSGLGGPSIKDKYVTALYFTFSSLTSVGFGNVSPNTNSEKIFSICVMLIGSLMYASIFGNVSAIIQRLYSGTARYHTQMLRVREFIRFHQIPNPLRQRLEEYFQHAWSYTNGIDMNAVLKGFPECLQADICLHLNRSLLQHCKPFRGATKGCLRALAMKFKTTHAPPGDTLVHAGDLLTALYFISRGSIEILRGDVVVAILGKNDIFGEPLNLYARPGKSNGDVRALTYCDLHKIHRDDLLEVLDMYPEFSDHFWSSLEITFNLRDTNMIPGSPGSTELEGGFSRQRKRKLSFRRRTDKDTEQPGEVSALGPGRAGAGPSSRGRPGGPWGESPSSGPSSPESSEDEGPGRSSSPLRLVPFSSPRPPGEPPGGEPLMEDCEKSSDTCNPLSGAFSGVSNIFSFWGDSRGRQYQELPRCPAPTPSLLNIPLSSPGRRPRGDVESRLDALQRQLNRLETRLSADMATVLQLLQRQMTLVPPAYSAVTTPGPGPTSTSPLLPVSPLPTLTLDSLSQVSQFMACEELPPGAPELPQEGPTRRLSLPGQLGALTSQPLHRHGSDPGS
Delta-type opioid receptor, sequence (P41143 whole entry): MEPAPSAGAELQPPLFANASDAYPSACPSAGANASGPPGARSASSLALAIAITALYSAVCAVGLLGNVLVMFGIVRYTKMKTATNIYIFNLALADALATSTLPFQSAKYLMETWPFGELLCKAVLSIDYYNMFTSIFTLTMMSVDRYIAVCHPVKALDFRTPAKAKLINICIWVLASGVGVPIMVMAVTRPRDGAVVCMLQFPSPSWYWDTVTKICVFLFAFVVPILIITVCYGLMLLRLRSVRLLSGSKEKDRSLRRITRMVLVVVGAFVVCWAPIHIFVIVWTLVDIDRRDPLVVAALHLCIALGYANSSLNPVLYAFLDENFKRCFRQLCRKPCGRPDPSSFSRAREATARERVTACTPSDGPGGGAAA
D(3) dopamine receptor, sequence (P35462 whole entry): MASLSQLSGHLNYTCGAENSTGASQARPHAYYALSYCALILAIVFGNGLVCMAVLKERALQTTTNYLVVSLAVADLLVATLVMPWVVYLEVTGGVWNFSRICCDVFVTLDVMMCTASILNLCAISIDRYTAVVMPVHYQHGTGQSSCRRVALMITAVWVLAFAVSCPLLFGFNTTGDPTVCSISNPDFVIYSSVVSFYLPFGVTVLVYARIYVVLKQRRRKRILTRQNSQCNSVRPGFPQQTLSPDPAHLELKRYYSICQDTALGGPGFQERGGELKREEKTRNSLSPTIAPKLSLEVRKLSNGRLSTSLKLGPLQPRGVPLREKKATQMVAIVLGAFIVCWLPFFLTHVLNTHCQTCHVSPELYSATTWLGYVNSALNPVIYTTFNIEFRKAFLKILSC
Beta-1 adrenergic receptor, sequence (P08588 whole entry): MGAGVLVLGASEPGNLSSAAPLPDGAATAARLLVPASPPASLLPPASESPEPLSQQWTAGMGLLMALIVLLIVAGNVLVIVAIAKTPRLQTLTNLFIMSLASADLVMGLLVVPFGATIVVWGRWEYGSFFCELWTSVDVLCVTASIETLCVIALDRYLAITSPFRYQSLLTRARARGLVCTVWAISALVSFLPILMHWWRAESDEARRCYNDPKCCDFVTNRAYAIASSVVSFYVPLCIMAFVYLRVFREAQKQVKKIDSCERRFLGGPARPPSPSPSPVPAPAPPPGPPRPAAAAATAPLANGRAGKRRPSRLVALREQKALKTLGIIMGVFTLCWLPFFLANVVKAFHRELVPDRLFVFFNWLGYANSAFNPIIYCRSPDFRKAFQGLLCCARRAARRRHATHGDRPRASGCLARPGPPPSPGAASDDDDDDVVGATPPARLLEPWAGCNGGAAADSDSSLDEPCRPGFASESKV
Vasopressin V1a receptor, sequence (P37288 whole entry): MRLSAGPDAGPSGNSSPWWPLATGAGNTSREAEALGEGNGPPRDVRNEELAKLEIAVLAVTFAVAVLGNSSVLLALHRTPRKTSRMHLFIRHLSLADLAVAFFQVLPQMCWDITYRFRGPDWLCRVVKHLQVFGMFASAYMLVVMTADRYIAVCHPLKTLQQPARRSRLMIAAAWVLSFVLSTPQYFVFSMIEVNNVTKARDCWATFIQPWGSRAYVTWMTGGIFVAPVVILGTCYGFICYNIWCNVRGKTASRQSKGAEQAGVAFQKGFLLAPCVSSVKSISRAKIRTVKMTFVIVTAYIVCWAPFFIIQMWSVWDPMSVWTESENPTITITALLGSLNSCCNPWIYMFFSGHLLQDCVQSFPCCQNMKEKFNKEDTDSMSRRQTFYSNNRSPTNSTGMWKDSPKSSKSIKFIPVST

Row | Compound | AC50 [1] [µM] | AC50 [2] [µM] | AC50 [3] [µM] | AC50 [4] [µM] | AC50 [5] [µM] | AC50 [6] [µM] | AC50 ([7]; read-out: AC50) [µM] | AC50 [8] [µM] | AC50 [9] [µM] | AC50 [10] [µM] | AC50 ([7]; human, cellular components) [µM]
1 | O=C(C[S+]([O-])Cc1ccco1)NC/C=C\COc1cc(CN2CCCCC2)ccn1 (stereo not given) [LAFUTIDINE] | > 10 | > 10 | > 10 | > 10 | > 10 | > 30 | > 30 | > 30 | > 30 | > 30 | –
2 | C=C(c1ccccc1OCc1cccc(Cl)c1)n1ccnc1 [CROCONAZOLE] | > 10 | > 30 | > 30 | > 10 | > 30 | 18 | 4.97 | > 30 | > 30 | 21 | –
3 | Cc1ccc(S(=O)(=O)NC(=O)N[C@H]2[C@H]3CC[C@@](C)([C@H]2O)C3(C)C)cc1 [GLIBORNURIDE] | > 30 | > 30 | > 30 | > 30 | > 30 | > 30 | > 30 | > 30 | > 30 | > 30 | –
4 | SITOSTEROLS | > 30 | > 30 | > 30 | > 30 | > 30 | > 30 | – | > 30 | > 30 | > 30 | > 30
5 | TEPRENONE | > 10 | > 30 | > 30 | > 10 | > 30 | > 30 | – | > 30 | > 30 | > 30 | > 30
6 | O=C(O)c1ccc2nc(-c3cc(Cl)cc(Cl)c3)oc2c1 | > 30 | > 30 | > 30 | > 30 | > 30 | > 30 | > 30 | 30 | > 1 | > 30 | –
7 | CO/N=C(\C(=O)N[C@@H]1C(=O)N2C(C(=O)O)=C(CSc3nc(C)c(CC(=O)O)s3)CS[C@H]12)c1csc(N)n1 [CEFODIZIME] | > 30 | > 30 | > 30 | > 30 | > 30 | > 30 | > 30 | > 30 | > 30 | > 30 | –
8 | CCN(CC)CCCN(c1ccccc1)C1Cc2ccccc2C1 [APRINDINE] | > 30 | > 30 | > 30 | 14.5 | > 30 | 8.5 | 1 | > 30 | 3.15 | 14 | –
9 | Oc1cc(O)c2c(c1)O[C@H](c1ccc(O)c(O)c1)[C@@H](O)C2 [CIANIDANOL] | > 10 | > 10 | > 30 | > 10 | > 30 | > 30 | > 30 | > 30 | > 30 | > 30 | –
10 | CC(C)(N)Cc1ccccc1 [PHENTERMINE] | > 10 | > 10 | > 30 | > 10 | > 30 | > 30 | > 30 | > 30 | > 30 | > 30 | –
11 | CN(C)CCOCC(=O)NC12CC3CC(CC(C3)C1)C2 [TROMANTADINE] | > 30 | > 30 | > 30 | > 30 | > 30 | > 30 | > 30 | > 30 | > 30 | > 30 | –
12 | CCCO[C@H]1[C@@H]([C@@H](COCc2ccc(Cl)cc2)OCc2ccc(Cl)cc2)OC(OCC)[C@@H]1O (stereo not given in full) [CLOBENOSIDE] | > 30 | > 30 | > 30 | > 30 | > 10 | > 30 | > 30 | > 30 | > 30 | > 30 | –
